Measurements as given in US11180510B2, “Xanthine derivatives and uses thereof as inhibitors of bromodomains of BET proteins” (Centre national de la recherche scientifique, priority 2017, dated 2021).
“Also recorded” adds a separate entry of the source.

Assays:
BRD4(BD1) [1] = biological target: T1, BRD4(BD1) (Homo sapiens, UniProt O60885); assay: Thermal shift assay (BromoMELT), Brd4 (BD1); type: binding; conditions: compound at 25 μM, cut-off +/−3.5° C.
Method: (§1) FIG. 3. Thermal Shift Assay (TSA) of 43c. The evaluation was performed on 61 bromodomains. A cut-off at +/−3.5° C. was set.
(§2) TSA “Bromoscan” assays (Reaction Biology) were performed in 384 well RT-PCR plate (BioRad) with a total working volume of 15 μL. The “BromoMelT™, containing the 61 GST- or His-tagged-bromodomains, SYPRO® Orange and a mix compounds as control, was purchased from Reaction Biology. For each point, 3 μL of protein (1×) and 12 μL master mix (buffer+SYPRO® Orange+compound at 25 μM or control mix compounds or DMSO (0.5%)) were mixed in plate. The plate was placed in a CFX384 RTQPC (BioRad), and heated 10 seconds at 25° C., then the temperature was increased from 25° C. to 90° C., by increment of 0.5° C. every 30 seconds. The fluorescence was recorded using FRET filters.

BRD4(BD1) [2] = biological target: T1, BRD4(BD1); assay: Isothermal Titration Calorimetry; type: binding; conditions: Brd4 (BD1), FIG. 1; read-out: KD by ITC (orthogonal assay)
Method: FIG. 1. Isothermal Titration Calorimetry (ITC) of 43c. Thermogram (top) and non-linear least squares fit model of the integrated data (bottom) at 15° C. of Brd4 (BD1) […] as a function of the molar ratio of ligand to the protein.
ITC was used to evaluate the thermodynamics parameters of the binding between BRD4 (BD1) and the selected compounds. Titrations were carried out on a MicroCal ITC200 microcalorimeter (GE Healthcare, Piscataway, N.J.). Each experiment was designed using a titrant concentration (protein in the syringe generally between 100 and 400 μM) set 10 to 15 times the analyte concentration (compound in the cell generally between 10 and 40 μM) and using 13 injections at 25° C. A first small injection (generally 0.2 μL) was included in the titration protocol in order to remove air bubbles trapped in the syringe prior titration. Raw data were scaled after setting the zero to the titration saturation heat value. Integrated raw ITC data were fitted to a one site non-linear least squares fit model using the MicroCal Origin plugin as implemented in Origin 7 (Origin Lab). Finally, ΔG and TΔS values were calculated from the fitted ΔH and KA values using the equations ΔG=−R.T.inKA and ΔG=ΔH−TΔS.

Brd3(BD2) = biological target: T2, Brd3(BD2) (Homo sapiens, UniProt Q15059); assay: HTRF BET selectivity profile, Brd3(BD2); type: binding
T2 construct: GST tagged bromodomain proteins were purchased from BPS Bioscience; purchased BPS Bioscience
T2 sequence (Q15059 306-415 limits assumed): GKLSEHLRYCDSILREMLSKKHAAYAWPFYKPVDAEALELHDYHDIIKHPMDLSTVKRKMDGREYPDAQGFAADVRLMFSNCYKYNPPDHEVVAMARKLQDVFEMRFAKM
In short: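 HTRF peptide-displacement assay with GST-tagged bromodomains and histone peptide, 0.5% final DMSO, incubated 3 h, 6 h or overnight at room temperature or 4 °C depending on bromodomain. 665/620 nm ratio read; inhibition scaled between DMSO and no-peptide controls, IC50 in triplicate.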

c-Myc = c-Myc HTRF, Jurkat cell line; type: cell-based, human
Method: For additional evaluation of the effect of 43c in cell assays, an influence of the molecule on c-Myc expression was determined by c-Myc HTRF. c-Myc is a proto-oncogene that is often overexpressed in cancer. This leads to the increased expression of many genes, involved in cell proliferation, contributing to cancer development. Downregulation of c-Myc is considered as a promising approach for anticancer treatment.

61 bromodomains = assay: Thermal shift assay selectivity profile on 61 bromodomains; type: binding; conditions: compound at 25 μM, 25 µM
Method: as §1, §2

Brd3(BD1) = Brd3(BD1) (Homo sapiens, UniProt Q15059); assay: Thermal shift assay (BromoMELT), Brd3 (BD1); type: binding; design: containing the 61 GST- or His-tagged-bromodomains; purchased Reaction Biology; conditions: compound at 25 μM, cut-off +/−3.5° C.
Brd3(BD1), sequence (Q15059 34-140 limits assumed): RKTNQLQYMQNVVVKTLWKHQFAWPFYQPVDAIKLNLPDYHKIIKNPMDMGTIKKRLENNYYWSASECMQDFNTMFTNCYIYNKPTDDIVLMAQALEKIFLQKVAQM
Method: as §1, §2

Jurkat cells = assay: Cell Titer-Glo cell viability assay, Jurkat; type: cell-based; conditions: Homo sapiens, 72 h, mean of three experiments, NA = IC50 > maximal concentration used
In short: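 Jurkat was grown in RPMI-1640 and Molm14 in MEMα, both with 10% FBS. Viability was read by CellTiter-Glo luminescence, and EC50 was obtained by non-linear regression of dose-response curves.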

ΔTm at 25 µM (BRD4(BD1) [1]): 5.25 °C
Kd (BRD4(BD1) [2]): 90 nM
IC50 (Brd3(BD2)): 2170 nM
ΔTm at 25 µM (Brd3(BD1)): 4.5 °C
IC50 (Jurkat cells): 17600 nM
Structure (SMILES): CCn1cnc2c1c(=O)[nH]c(=O)n2Cc1ccc(CNS(=O)(=O)c2ccc(OC3CCOCC3)c(F)c2)cc1 [Compound 43c]
concentration at which c-Myc is downregulated, Jurkat (c-Myc): 2.4 µM
Bromodomain selectivity profile by thermal shift assay (61 bromodomains): stabilize only BET proteins; also recorded: stabilizes only BRD4 (BD1) and BRD3 (BD1)
